Assay results as given in US7414069B2, “Antituberculosis compounds, Hirsutellones A, B, and C” (National Center for Genetic Engineering & Biotechnology, …, priority 2004, dated 2008).
≈ marks a conversion by molar mass, not a printed value.

Key:
[1] = system: Mycobacterium tuberculosis H37Ra strain (ATCC 25166); assay: Microplate Alamar Blue Assay (MABA), antituberculous activity; assay type: cell-based; conditions: M. tuberculosis H37Ra, two-fold serial dilution from 50 μg/ml
Description: Preparation of Mycobacteria Mycobacterium tuberculosis H37Ra strain (ATCC 25166) was grown in 100 ml of Middlebrook 7H9 broth supplemented with 0.2% glycerol, 1.0 g/l of casitone, 10% OADC, and 0.05% Tween 80. The complete medium was referred to as 7H9GC-Tween. The bacteria were incubated in 500-ml flasks on a rotary shaker at 200 rpm and 37° C. until the optical density at 550 nm reached 0.4-0.5. The bacteria were washed twice with phosphate-buffered saline and then suspended in 20 ml of phosphate-buffered saline. The suspension was passed through an 8-μm-pore-size filter to eliminate clumps. The number of bacteria in the filtrates were counted by plating the bacteria in Middlebrook 7H10 agar. The filtrates were stored at −80° C.
Microplate Alamar Blue Assays (MABA) Anti-tuberculous testing was performed in a 96-well microplate as previously described (Collins, L. and Franzblau, S. G., Antimicrob. Agents Chemother., 41:1004-1009 (1997)). Outer perimeter wells were filled with sterile water to prevent dehydration of the test wells. Crude extracts were initially diluted with dimethyl sulfoxide, and then were diluted to a concentration of 400 μg/ml in Middlebrook 7H9 medium containing 0.2% V/V glycerol and 1.0 g/l casitone (7H9GC). The wells in rows B to G in columns 2, 4, 5, 6, 8, 9, 10 of the microplate were filled with 100 μl of 7H9GC. The wells in column 11 were inoculated with 200 μl of the medium to serve as media controls (M). Bacteria (only) controls (B) were set-up in column 10. One hundred microliters of each crude extract solution (400 μg/ml) were added to three wells in one row in columns 2 (or 6), 3 (or 7) and 4 (or 8). One hundred microliters were transferred from column 4 (or 8) to column 5 (or 9), the contents of the wells in column 5 (or 9) were mixed well and then 100 μl of mixed medium were discarded. The wells in columns 2 and 6 served as test sample controls.
Frozen bacterial inocula were diluted 1:200 in 7H9GC medium. One hundred microliters of the bacteria were added to the wells in rows B to G in columns 3 (or 7), 4 (or 8), 5 (or 9) and 10, resulting in final bacterial titers of approximately 5×10^4 CFU/ml. The wells in column 10 served as bacteria (only) controls (B). Final concentrations of extracts were 200, 100 and 50 μg/ml in columns 3 (or 7), 4 (or 8) and 5 (or 9), respectively.
The plates were sealed with Parafilm and were incubated at 37° C. for 5 days. At day 6 of incubation, 20 μl of Alamar Blue reagent and 12.5 μl of 20% Tween 80 were added to well B10 (B) and B11 (M). The plates were re-incubated at 37° C. for 24 h. […] If the B wells became pink by 24 h, reagent was added to the entire plate. If the well remained blue, the additional M and B wells were tested daily until a color change occurred at which time reagents were added to all remaining wells. The microplates were resealed with Parafilm and were then incubated at 37° C. The results were recorded 24 h after adding reagent.
Blue color in the well was interpreted as no growth, reflecting the activity of the test compound in the well. A pink color was scored as growth and reflected the lack of activity of the test compound. A few wells appeared violet after 24 h of incubation, but they invariably changed to pink after extra day of incubation and thus were scored as growth (while the adjacent blue wells remained blue). […]

[2] = Cytotoxicity against Vero cells (sulforhodamine B staining); assay type: cell-based; conditions: African green monkey, Vero cells (ATCC CCL-81), 37° C.
Description: (§1) Hirsutellones A, B and C were tested for cytotoxicity by incubating with Vero cells (African green monkey kidney cell line from American Type Culture Collection USA; ATCC # CCL-81). Each compound was dissolved in dimethyl sulfoxide and then diluted in the culture medium of the Vero cells (Eagle's Minimum Essential with 10% heat-inactivated fetal bovine serum and antibiotics). The Vero cells and the compound were incubated together in a 96-well microplate at a cell concentration of 1.9×10^4 cells/190 μl/well, in a CO2 incubator at 37° C. for 3 days.
(§2) The numbers of the cells in the wells were then determined by a staining method (Skehan, P., et al., J. Natl Cancer Inst., 82:1107-1112 (1990)). The cells were initially fixed by 50% cold trichloroacetic acid (TCA) at 4° C. for 30 minutes. The cells were then washed with water 4 times. After drying, the cells were stained with 0.05% sulforhodamine B in 1% acetic acid for 30 minutes, washed with ^1% acetic acid 4 times and dried at room temperature. Finally, 10 mM Tris-base pH 10 was added. The absorbance at 510 nm of test wells was measured by an ELISA microplate reader. The absorbance was proportionate to the number of the viable cells in the wells. The toxicity level of the compound was recorded as the concentration that rendered the number of viable cells to be less than half of the negative control wells, which contained the cells with DMSO but not the compound. Ellipticine was used as a positive control. The toxicity level of each compound against Vero cells was expressed as IC50.

[3] = Cytotoxicity against KB cells (sulforhodamine B staining); assay type: cell-based; conditions: human, KB cells (oral epidermoid carcinoma, ATCC CCL-17), starting concentration 20 μg/ml
Description: as §1, §2
(§3) Hirsutellones were also tested for cytotoxicity against multiple human cancer cell lines, to study the effects on human cells in vitro. The cancer cell lines included KB cells (oral epidermoid carcinoma; ATCC # CCL-17), BC cells (breast cancer) and NCI-H187 cells (lung cancer; ATCC # CRL-5804) The same protocol as that for the cytotoxicity assay against Vero cells was used, except for the starting compound concentration which was 20 μg/ml.

[4] = Cytotoxicity against BC cells (sulforhodamine B staining); assay type: cell-based; conditions: human, BC cells (breast cancer), starting concentration 20 μg/ml
Description: as §1, §2, §3

[5] = Cytotoxicity against NCI-H187 cells (sulforhodamine B staining); assay type: cell-based; conditions: human, NCI-H187 cells (lung cancer, ATCC CRL-5804), starting concentration 20 μg/ml
Description: as §1, §2, §3

SMILES | MIC [1] [mg/L] | IC50 at 3 days [2] [mg/L] | IC50 at 3 days [3] [mg/L] | IC50 at 3 days [4] [mg/L] | IC50 at 3 days [5] [mg/L] | melting point
NNC(=O)c1ccncc1 [isoniazid, reference compound] | 0.04 (≈ 0.292 µM) |  |  |  |  | 
NC[C@H]1O[C@H](O[C@H]2[C@H](O)[C@@H](O[C@H]3O[C@H](CO)[C@@H](O)[C@H](N)[C@H]3O)[C@H](N)C[C@@H]2N)[C@H](O)[C@@H](O)[C@@H]1O [kanamycin, reference compound] | 2.5 (≈ 5.16 µM) |  |  |  |  | 
Cc1c2ccncc2c(C)c2c1[nH]c1ccccc12 [Ellipticine, reference compound] |  | 0.4 (≈ 1.62 µM) | 1.3 (≈ 5.28 µM) | 1.5 (≈ 6.09 µM) | 0.39 (≈ 1.58 µM) | 
C=CC1C=CC2C3CC(C)CCC3C3Oc4ccc(cc4)CC4C(=O)NC(=O)C4C(=O)C1C23 (centres unmarked) [Hirsutellone A] | 0.78 (≈ 1.75 µM) | > 50 | > 20 | > 20 | > 20 | 
C=CC1C=CC2C3CC(C)CCC3C3Oc4ccc(cc4)CC4(O)CC(C(=O)N4)C(=O)C1C23 (centres unmarked) [Hirsutellone B] | 0.78 (≈ 1.74 µM) | > 50 | > 20 | > 20 | 6 (≈ 13.4 µM) | 261 to 263 °C (dec.)
C=CC1C=CC2C3CC(C)CCC3C3Oc4ccc(cc4)CC4(O)NC(=O)C5(OC45)C(=O)C1C23 (centres unmarked) [Hirsutellone C] | 0.78 (≈ 1.69 µM) | 12 (≈ 26 µM) | 4.6 (≈ 9.97 µM) | 3.2 (≈ 6.93 µM) | 8.3 (≈ 18 µM) | 234 to 235 °C (dec.)
